The source of these data is US20230080054A1 (ILDONG PHARMACEUTICAL CO., LTD., priority 2021, published 2023).

Some results are limits rather than exact numbers.

In general, inhibition refers to how much of the control response was suppressed.

The test deals with T1, human ANO6 (Homo sapiens, UniProt Q4KMQ2).
T1 construct: expressed in transfected cells
T1 sequence (Q4KMQ2 1-931 isoform Q4KMQ2-2): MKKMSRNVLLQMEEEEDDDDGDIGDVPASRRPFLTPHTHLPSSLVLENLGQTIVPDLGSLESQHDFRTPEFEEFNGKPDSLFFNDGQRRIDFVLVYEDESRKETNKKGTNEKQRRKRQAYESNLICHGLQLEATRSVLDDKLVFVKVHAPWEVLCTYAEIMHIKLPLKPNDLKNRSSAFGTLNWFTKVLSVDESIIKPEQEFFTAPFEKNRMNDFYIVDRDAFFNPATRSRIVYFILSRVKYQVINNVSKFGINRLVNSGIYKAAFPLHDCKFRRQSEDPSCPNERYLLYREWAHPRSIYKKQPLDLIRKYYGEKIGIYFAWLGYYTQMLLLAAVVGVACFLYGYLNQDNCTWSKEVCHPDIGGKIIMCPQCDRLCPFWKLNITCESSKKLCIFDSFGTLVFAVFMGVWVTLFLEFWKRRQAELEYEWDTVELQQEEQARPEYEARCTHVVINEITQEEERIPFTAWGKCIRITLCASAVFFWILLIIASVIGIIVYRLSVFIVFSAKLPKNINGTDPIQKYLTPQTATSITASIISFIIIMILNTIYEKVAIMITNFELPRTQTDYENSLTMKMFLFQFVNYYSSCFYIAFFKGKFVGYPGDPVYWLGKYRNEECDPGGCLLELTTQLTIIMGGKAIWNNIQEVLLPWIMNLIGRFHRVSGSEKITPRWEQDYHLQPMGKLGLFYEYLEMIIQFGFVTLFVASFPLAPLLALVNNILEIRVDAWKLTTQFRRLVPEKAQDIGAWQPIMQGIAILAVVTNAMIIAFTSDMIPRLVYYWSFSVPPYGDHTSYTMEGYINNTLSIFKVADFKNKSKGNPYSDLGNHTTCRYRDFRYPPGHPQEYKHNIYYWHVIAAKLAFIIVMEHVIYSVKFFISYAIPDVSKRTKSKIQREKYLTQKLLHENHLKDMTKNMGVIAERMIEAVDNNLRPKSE
The test is described as follows: YFP quenching assay (ANO6 ion channel activity). The class given is cell-based. The note with it: 10 μM ionomycin; for inhibition at 1 µM: test compound 1 μM, read-out: Inhibition Level 1 μM; for inhibition at 30 µM: test compound 30 μM, read-out: Inhibition Level 30 μM. From the text:
Example 3: YFP Quenching Assay
1. Materials and Instruments
Ionomycin (Alomonelab cat. #I-700), FLUOstar Omega microplate reader (BMG Labtech, Ortenberg, Germany), and MARS Data Analysis Software (BMG Labtech)
Fisher rat thyroid (FRT) cells stably expressing human ANO6 (GenBank accession no. NP_001191732.1, provided by J. H. Nam, Dongguk University College of Medicine, Korea) and halide sensor mutant YFP-H148Q/I152L/F46L) were constructed and grown in Dulbecco's modified Eagle's medium Nutrient Mixture F-12 (DMEM/F-12) supplemented 10% FBS, 100 units/mL penicillin, 500 μg/mL hygromycin B and 100 μg/mL neomycin.
Fisher rat thyroid (FRT) cells stably expressing human ANO6 and halide sensor mutant YFP (H148Q/I152L/F46L) were seeded in black walled 96 well plates and incubated in a 37° C., 5% CO2 incubator to reach about 100% cell confluency. Then, each well of the 96 well plates were washed for several times with phosphate buffered saline (PBS), and 50 μL of PBS was added to each well. Test compounds (100× in DMSO) were added to each well to be 1% v/v DMSO. After incubation for 10 minutes in 40° C., the 96 well plates were transferred to a plate reader, and YFP fluorescence changed by SCN-introduced into cells through activated ANO6 were measured by the following steps.
(1) YFP fluorescence signals were recorded in every 0.4 seconds.
(2) Basal YFP fluorescence signals were recorded for 1 second.
(3) 140 mM SCN-(50 μL) containing 10 μM ionomycin was injected to each well, and YFP fluorescence signals were recorded.
The inhibitory activity (%) of each of the test compounds was obtained by the following steps.
(1) Background signals were subtracted from recording values, and the resulting values were converted to relative percentages. The values at 0 second were set to be 100%.
(2) Differences between the values at 3.6 seconds and those of at 7.6 seconds were calculated.
(3) In each row of 96 well plate, the inhibitory activity of each of the test compounds was calculated as percentages. The inhibitory activity of a negative control group to which neither compounds nor ionomycin were treated was set to be 100%, and the inhibitory activity of a positive control group to which ionomycin was treated and compounds were not treated was set to be 0%.
(4) The assay was performed in duplicate or triplicate, and the results were averaged.

For the molecule `CCNC(=O)c1cccc(Nc2ccc(-c3ccccc3)nn2)c1` [Compound 37, N-ethyl-3-[(6-phenylpyridazin-3-yl)amino]benzamide], the inhibition at 1 µM fell in the range of 30 to 60% and the inhibition at 30 µM is not below 60%.
For `Cc1ccc(CNC(=O)c2cccc(Nc3ccc(C4CCNCC4)nn3)c2)o1` [Compound 71, N-[(5-methylfuran-2-yl)methyl]-3-{[6-(piperidin-4-yl)pyridazin-3-yl]amino}benzamide], the inhibition at 1 µM was less than 30%.
On the same count and under the same terms, next, `O=C(NCCc1ccc2c(c1)OCO2)c1cccc(Nc2ncc(-c3ccccc3)cn2)c1` [Compound 106, N-[2-(2H-1,3-benzodioxol-5-yl)ethyl]-3-[(5-phenylpyrimidin-2-yl)amino]benzamide]: 30 to 60%; `CN(C)CCNC(=O)c1cccc(Nc2ncc(-c3ccccc3)cn2)c1` [Compound 95, N-[2-(dimethylamino)ethyl]-3-[(5-phenylpyrimidin-2-yl)amino]benzamide]: less than 30%; `O=C(NCCCc1ccccc1)c1cccc(Nc2ncc(-c3ccccc3)cn2)c1` [Compound 55, N-(3-phenylpropyl)-3-[(5-phenylpyrimidin-2-yl)amino]benzamide]: not below 60%.
`CN1CCN(CCNC(=O)c2cccc(Nc3ncc(-c4ccccc4)cn3)c2)CC1` [Compound 97, N-[2-(4-methylpiperazin-1-yl)ethyl]-3-[(5-phenylpyrimidin-2-yl)amino]benzamide]: the inhibition at 1 µM is less than 30%.
`Cc1ccc(CNC(=O)c2cccc(Nc3ccc(C4CC4)nn3)c2)o1` [Compound 43, 3-[(6-cyclopropylpyridazin-3-yl)amino]-N-[(5-methylfuran-2-yl)methyl]benzamide]: the inhibition at 1 µM was less than 30%.
With `CCN(CC)c1ccc(CNC(=O)c2cccc(Nc3ncc(-c4cccc(F)c4)cn3)c2)cc1` [Compound A81], the inhibition at 1 µM fell in the range of 30 to 60%.
Consider `NC(=O)c1ccc(Nc2ccc(-c3ccccc3)nn2)cc1` [Compound A86], for which the inhibition at 30 µM lay within 30 to 60%.
`O=C(NCc1ccncc1)c1cccc(Nc2ccc(-c3ccccc3)nn2)c1` [Compound 18, 3-[(6-phenylpyridazin-3-yl)amino]-N-[(pyridin-4-yl)methyl]benzamide]: the inhibition at 1 µM is less than 30% and the inhibition at 30 µM lay in the range of 30 to 60%.
`Cc1ccc(CNC(=O)c2cccc(Nc3ccc(-c4c(C)noc4C)nn3)c2)o1` [Compound 72, 3-{[6-(3,5-dimethyl-1,2-oxazol-4-yl)pyridazin-3-yl]amino}-N-[(5-methylfuran-2-yl)methyl]benzamide]: the inhibition at 1 µM was less than 30%.
For `Cc1cnnc(Nc2cccc(C(=O)NCc3ccc(C)o3)c2)c1` [Compound 42, N-[(5-methylfuran-2-yl)methyl]-3-[(5-methylpyridazin-3-yl)amino]benzamide], the inhibition at 30 µM is less than 30%.
Turning to `CC(C)(C)NC(=O)c1cccc(Nc2ccc(-c3ccccc3)nn2)c1` [Compound 65, N-tert-butyl-3-[(6-phenylpyridazin-3-yl)amino]benzamide], the inhibition at 1 µM fell in the range of 30 to 60%.
In the case of `COc1ccccc1NC(=O)c1cccc(Nc2ccc(-c3ccccc3)nn2)c1` [Compound A71], the inhibition at 30 µM fell in the range of 30 to 60%.
As to `COc1cccc(CNC(=O)c2cccc(Nc3ccc(-c4ccc(F)cc4)nn3)c2)c1` [Compound A29], the inhibition at 1 µM was in the range of 30 to 60% and the inhibition at 30 µM is not below 60%.
As for `Cc1ccc(CNC(=O)c2cccc(Nc3ncc(-c4ccc(C(=O)O)cc4)cn3)c2)o1` [Compound 109, 4-{2-[(3-{[(5-methylfuran-2-yl)methyl]carbamoyl}phenyl)amino]pyrimidin-5-yl}benzoic acid], the inhibition at 1 µM is less than 30%.
As to `O=C(NCCCN1CCOCC1)c1cccc(Nc2ccc(-c3ccccc3)nn2)c1` [Compound 15, N-[3-(morpholin-4-yl)propyl]-3-[(6-phenylpyridazin-3-yl)amino]benzamide], the inhibition at 1 µM is less than 30% and the inhibition at 30 µM lay in the range of 30 to 60%.
The matching figures for `CCN(CC)CCCNC(=O)c1cccc(Nc2ccc(-c3ccccc3)nn2)c1` [Compound A59]: less than 30% and 30 to 60%.
